Reference: PubChem BioAssay AID328 (DTP/NCI, 2004)
“And” between values parts separate entries of the source, which are not always exact repeats. Identical values can stand only once. Inconclusive results and toxic doses are left out.

System: BDF1 mice, P388 leukemia ip, median survival T/C
Experiment: NCI In Vivo Anticancer Drug Screen. Data for tumor model P388 Leukemia (intraperitoneal) in B6D2F1 (BDF1) mice
Conditions: endpoint: median survival time, higher = longer survival
Procedure, shortened: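 In tumour-bearing mice, survival after compound treatment is set against the vehicle group and given as a quotient.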

[1] = dose: 8.0 mg/kg/injection, schedule: Q01DX009 (ip), vehicle: saline
[2] = dose: 12.0 mg/kg/injection, schedule: Q01DX009 (ip), vehicle: saline
[3] = dose: 25.0 mg/kg/injection, schedule: Q01DX009 (ip), vehicle: saline
[4] = dose: 100.0 mg/kg/injection, schedule: Q04DX003 (ip), vehicle: saline with Tween-80
[5] = dose: 200.0 mg/kg/injection, schedule: Q04DX003 (ip), vehicle: saline with Tween-80
[6] = dose: 100.0 mg/kg/injection, schedule: Q04DX003 (ip), vehicle: Klucel (hydroxypropylcellulose) (HPC)
[7] = dose: 400.0 mg/kg/injection, schedule: Q04DX003 (ip), vehicle: Klucel (hydroxypropylcellulose) (HPC)
[8] = dose: 3.0 mg/kg/injection, schedule: Q01DX009 (ip), vehicle: saline with Tween-80
[9] = dose: 6.0 mg/kg/injection, schedule: Q01DX009 (ip), vehicle: saline with Tween-80

With `NNc1ncnc2c(C3OC(CO)C(O)C3O)[nH]nc12` (stereo unspecified) the T/C (dose: 20.0 mg/kg/injection, schedule: Q01DX009 (ip), vehicle: water) was 100 % of control, the T/C (dose: 30.0 mg/kg/injection, schedule: Q01DX009 (ip), vehicle: water) was 105 % of control and the T/C (dose: 45.0 mg/kg/injection, schedule: Q01DX009 (ip), vehicle: water) was 110 % of control. The T/C (dose: 67.0 mg/kg/injection, schedule: Q01DX009 (ip), vehicle: water) was 95 % of control and the T/C (dose: 100.0 mg/kg/injection, schedule: Q01DX009 (ip), vehicle: water) was 100 % of control.
With `Cc1ccc(C=C(C(=O)CCN(C)C)C(=O)CCN(C)C)cc1` the T/C (dose: 50.0 mg/kg/injection, schedule: Q01DX005 (ip), vehicle: saline) was 87 % of control, the T/C (dose: 100.0 mg/kg/injection, schedule: Q01DX005 (ip), vehicle: saline) was 109 % of control and the T/C (dose: 200.0 mg/kg/injection, schedule: Q01DX005 (ip), vehicle: saline) was 119 % of control.
`O=C(Nc1ccc(C2=NCCCN2)cc1)c1ccc(C(=O)Nc2ccc(C3=NCCCN3)cc2)nc1` was tested, and the T/C (dose: 0.85 mg/kg/injection, schedule: Q01DX009 (ip), vehicle: saline) was 92 % of control, the T/C (dose: 1.3 mg/kg/injection, schedule: Q01DX009 (ip), vehicle: saline) was 103 % of control and the T/C (dose: 3.0 mg/kg/injection, schedule: Q01DX009 (ip), vehicle: saline) was 155 % of control. For the same compound, the T/C (dose: 5.0 mg/kg/injection, schedule: Q01DX009 (ip), vehicle: saline) was 175 % of control, the T/C [1] was 195 % of control and the T/C (dose: 10.0 mg/kg/injection, schedule: Q01DX009 (ip), vehicle: saline with Tween-80) was 122 % of control. For the same compound, the T/C [2] was 153 % of control, the T/C (dose: 12.5 mg/kg/injection, schedule: Q04DX003 (ip), vehicle: saline) was 115 % of control and the T/C (dose: 16.5 mg/kg/injection, schedule: Q04DX003 (ip), vehicle: saline) was 118 % of control. For the same compound, the T/C (dose: 18.0 mg/kg/injection, schedule: Q01DX009 (ip), vehicle: saline) was 226 % of control and the T/C [3] was 196 % of control.
For `O=S(=O)(O)c1ccc(CCCCCCl)cc1`, the T/C [3] was 109 % of control, the T/C (dose: 50.0 mg/kg/injection, schedule: Q01DX009 (ip), vehicle: saline) was 100 % of control and the T/C (dose: 100.0 mg/kg/injection, schedule: Q01DX001 (ip), vehicle: saline) was 110 % of control. For the same compound, the T/C (dose: 100.0 mg/kg/injection, schedule: Q01DX009 (ip), vehicle: saline) was 104 % of control and 110 % of control, the T/C (dose: 200.0 mg/kg/injection, schedule: Q01DX001 (ip), vehicle: saline) was 90 % of control and the T/C (dose: 200.0 mg/kg/injection, schedule: Q01DX009 (ip), vehicle: saline) was 100 % of control. The T/C (dose: 400.0 mg/kg/injection, schedule: Q01DX001 (ip), vehicle: saline) was 90 % of control and the T/C (dose: 400.0 mg/kg/injection, schedule: Q01DX009 (ip), vehicle: saline) was 110 % of control.
For `Cn1c(CC(O)(C(F)(F)Cl)C(F)(F)Cl)cc(=O)n1-c1ccccc1`, the T/C [4] was 100 % of control and the T/C [5] was 100 % of control.
`CC1(C)CN(Cc2ccccc2)C(C)(C)CN1` was tested, and the T/C (dose: 0.78 mg/kg/injection, schedule: Q01DX009 (ip), vehicle: saline with Tween-80) was 89 % of control, the T/C (dose: 1.56 mg/kg/injection, schedule: Q01DX009 (ip), vehicle: saline with Tween-80) was 97 % of control and the T/C (dose: 3.12 mg/kg/injection, schedule: Q01DX009 (ip), vehicle: saline with Tween-80) was 95 % of control. For the same compound, the T/C (dose: 3.12 mg/kg/injection, schedule: Q04DX003 (ip), vehicle: saline with Tween-80) was 114 % of control, the T/C (dose: 6.25 mg/kg/injection, schedule: Q01DX009 (ip), vehicle: saline with Tween-80) was 91 % of control and the T/C (dose: 6.25 mg/kg/injection, schedule: Q04DX003 (ip), vehicle: saline with Tween-80) was 108 % of control. The T/C (dose: 12.5 mg/kg/injection, schedule: Q04DX003 (ip), vehicle: saline with Tween-80) was 96 % of control and the T/C (dose: 25.0 mg/kg/injection, schedule: Q04DX003 (ip), vehicle: saline with Tween-80) was 89 % of control.
`Cc1ccc([N+](=O)[O-])cc1N=C=O` was tested, and the T/C (dose: 12.5 mg/kg/injection, schedule: Q01DX009 (ip), vehicle: Klucel (hydroxypropylcellulose) (HPC)) was 96 % of control, the T/C (dose: 25.0 mg/kg/injection, schedule: Q01DX009 (ip), vehicle: Klucel (hydroxypropylcellulose) (HPC)) was 100 % of control and the T/C (dose: 50.0 mg/kg/injection, schedule: Q01DX009 (ip), vehicle: Klucel (hydroxypropylcellulose) (HPC)) was 96 % of control. The T/C [6] was 91 % of control and the T/C [7] was 91 % of control.
With `CC(C)(CBr)C(=O)N1CCN(C(=O)C(C)(C)CBr)CC1` the T/C (dose: 20.0 mg/kg/injection, schedule: Q04DX003 (ip), vehicle: Klucel (hydroxypropylcellulose) (HPC)) was 150 % of control, the T/C (dose: 30.0 mg/kg/injection, schedule: Q04DX003 (ip), vehicle: Klucel (hydroxypropylcellulose) (HPC)) was 159 % of control and 163 % of control and the T/C (dose: 44.0 mg/kg/injection, schedule: Q04DX003 (ip), vehicle: Klucel (hydroxypropylcellulose) (HPC)) was 163 % of control and 165 % of control. For the same compound, the T/C [6] was 195 % of control and 200 % of control and the T/C (dose: 150.0 mg/kg/injection, schedule: Q04DX003 (ip), vehicle: Klucel (hydroxypropylcellulose) (HPC)) was 175 % of control.
With `CC(=O)C1=C(O)C2C3c4c[nH]c5cccc(c45)CC3C(C)(C)N2C1=O` (stereo unspecified) the T/C (dose: 0.5 mg/kg/injection, schedule: Q01DX010 (ip), vehicle: saline) was 100 % of control, the T/C (dose: 1.0 mg/kg/injection, schedule: Q01DX010 (ip), vehicle: saline) was 100 % of control and the T/C (dose: 2.0 mg/kg/injection, schedule: Q01DX010 (ip), vehicle: saline) was 100 % of control. The T/C (dose: 4.0 mg/kg/injection, schedule: Q01DX010 (ip), vehicle: saline) was 110 % of control.
In the case of `C/C(=N/N)c1ccc(Br)cc1`, the T/C [8] is reported as 103 % of control, the T/C [9] is reported as 92 % of control and the T/C (dose: 22.0 mg/kg/injection, schedule: Q04DX003 (ip), vehicle: saline with Tween-80) is reported as 118 % of control. The T/C (dose: 34.0 mg/kg/injection, schedule: Q04DX003 (ip), vehicle: saline with Tween-80) was 118 % of control and 122 % of control and the T/C (dose: 50.0 mg/kg/injection, schedule: Q04DX003 (ip), vehicle: saline with Tween-80) was 122 % of control.
`N#CS/C=C\C(N)=O` was tested, and the T/C (dose: 1.5 mg/kg/injection, schedule: Q01DX009 (ip), vehicle: Klucel (hydroxypropylcellulose) (HPC)) was 100 % of control, the T/C (dose: 1.5 mg/kg/injection, schedule: Q04DX003 (ip), vehicle: Klucel (hydroxypropylcellulose) (HPC)) was 95 % of control and the T/C (dose: 3.0 mg/kg/injection, schedule: Q01DX009 (ip), vehicle: Klucel (hydroxypropylcellulose) (HPC)) was 91 % of control. For the same compound, the T/C (dose: 3.0 mg/kg/injection, schedule: Q04DX003 (ip), vehicle: Klucel (hydroxypropylcellulose) (HPC)) was 95 % of control, the T/C (dose: 6.0 mg/kg/injection, schedule: Q01DX009 (ip), vehicle: Klucel (hydroxypropylcellulose) (HPC)) was 89 % of control and 91 % of control and the T/C (dose: 6.0 mg/kg/injection, schedule: Q04DX003 (ip), vehicle: Klucel (hydroxypropylcellulose) (HPC)) was 100 % of control. The T/C (dose: 6.25 mg/kg/injection, schedule: Q04DX003 (ip), vehicle: Klucel (hydroxypropylcellulose) (HPC)) was 90 % of control and the T/C (dose: 12.5 mg/kg/injection, schedule: Q04DX003 (ip), vehicle: Klucel (hydroxypropylcellulose) (HPC)) was 100 % of control.
`CC(=O)[O][Hg][c]1cc(-c2ccc(N=Nc3c(S(=O)(=O)O)cc4cccc(N)c4c3O)cc2)ccc1N=Nc1c(S(=O)(=O)O)cc2cccc(N)c2c1O` was tested, and the T/C (dose: 1.5 mg/kg/injection, schedule: Q01DX009 (ip), vehicle: saline with Tween-80) was 100 % of control, the T/C [8] was 100 % of control and the T/C [9] was 95 % of control.
With `CC(=O)c1cnn(-c2ccccc2)c1C` the T/C (dose: 100.0 mg/kg/injection, schedule: Q01DX001 (ip), vehicle: Klucel (hydroxypropylcellulose) (HPC)) was 104 % of control, the T/C (dose: 100.0 mg/kg/injection, schedule: Q01DX009 (ip), vehicle: other) was 105 % of control and the T/C [6] was 104 % of control. For the same compound, the T/C (dose: 200.0 mg/kg/injection, schedule: Q01DX001 (ip), vehicle: Klucel (hydroxypropylcellulose) (HPC)) was 109 % of control, the T/C (dose: 200.0 mg/kg/injection, schedule: Q01DX009 (ip), vehicle: other) was 100 % of control and the T/C (dose: 200.0 mg/kg/injection, schedule: Q04DX003 (ip), vehicle: Klucel (hydroxypropylcellulose) (HPC)) was 86 % of control. For the same compound, the T/C (dose: 400.0 mg/kg/injection, schedule: Q01DX001 (ip), vehicle: Klucel (hydroxypropylcellulose) (HPC)) was 109 % of control, the T/C (dose: 400.0 mg/kg/injection, schedule: Q01DX009 (ip), vehicle: other) was 100 % of control and the T/C [7] was 90 % of control.
For `C[n+]1c2cc(N)ccc2cc2ccc(N)cc21`, the T/C [1] was 152 % of control and the T/C [2] was 167 % of control.
With `COc1cc(OC)c(OC)cc1/C=C/c1ccc2ccccc2n1` the T/C [4] was 100 % of control, the T/C [5] was 88 % of control and the T/C (dose: 400.0 mg/kg/injection, schedule: Q04DX003 (ip), vehicle: saline with Tween-80) was 88 % of control.
